{"source": "paper PMC3148216", "about": "“A Prokaryotic S1P Lyase Degrades Extracellular S1P In Vitro and In Vivo: Implication for Treating Hyperproliferative Disorders” (PLoS ONE, 2011)", "target": "T1, StSPL (S1P lyase from Symbiobacterium thermophilum) (Symbiobacterium thermophilum, UniProt Q67PY4)", "T1 construct": "gene STH1274; full-length STH1274, C-terminal His-tag, expressed in E. coli, 507 residues, 55 kDa monomer, homodimer (110 kDa); PLP-dependent, residues of both subunits form the active site", "T1 sequence (Q67PY4 entry or part of it)": "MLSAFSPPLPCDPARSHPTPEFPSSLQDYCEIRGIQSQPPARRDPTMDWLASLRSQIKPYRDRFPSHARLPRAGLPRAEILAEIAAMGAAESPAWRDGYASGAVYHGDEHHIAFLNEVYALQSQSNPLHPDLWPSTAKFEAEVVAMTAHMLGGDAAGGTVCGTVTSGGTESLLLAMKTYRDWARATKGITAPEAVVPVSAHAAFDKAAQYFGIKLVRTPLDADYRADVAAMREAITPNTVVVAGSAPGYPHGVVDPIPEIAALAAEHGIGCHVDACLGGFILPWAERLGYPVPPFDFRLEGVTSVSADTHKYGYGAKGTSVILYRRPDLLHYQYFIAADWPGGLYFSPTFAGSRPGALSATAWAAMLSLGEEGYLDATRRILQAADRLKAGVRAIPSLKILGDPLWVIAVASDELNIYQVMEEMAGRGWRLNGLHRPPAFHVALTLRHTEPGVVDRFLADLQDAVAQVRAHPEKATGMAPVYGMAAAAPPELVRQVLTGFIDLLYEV", "test": "visible spectrum of enzyme-bound cofactor, change on substrate addition", "assay_type": "binding", "conditions": "Schiff base with K311, covalent; S1P added; purified in PBS with 10 µM PLP", "data": [{"smiles": "Cc1ncc(COP(=O)(O)O)c(C=O)c1O", "note": "[PLP, pyridoxal-5′-phosphate]", "values": [{"measurement": "visible spectrum of enzyme-bound cofactor, change on substrate addition", "result": "recording spectrophotometric changes of the cofactor upon catalysis"}]}]}
